Assay results: PMC3913711, “A Novel Angiotensin I-Converting Enzyme Mutation (S333W) Impairs N-Domain Enzymatic Cleavage of the Anti-Fibrotic Peptide, AcSDKP” (PLoS ONE, 2014)
Residues, ends and D or L forms follow the SMILES beside them. *: point of attachment. Bz = O=C(c1ccccc1)*

Experiments:
[1] = molecular target: T1, Angiotensin I-converting enzyme (ACE, CD143) (Homo sapiens, UniProt P12821); assay: fluorimetric hydrolysis assay (His-Leu product), […] substrate; assay type: cell-based
T1 construct: full-length somatic ACE, CHO cell lysate
T1 sequence (P12821 30-1306): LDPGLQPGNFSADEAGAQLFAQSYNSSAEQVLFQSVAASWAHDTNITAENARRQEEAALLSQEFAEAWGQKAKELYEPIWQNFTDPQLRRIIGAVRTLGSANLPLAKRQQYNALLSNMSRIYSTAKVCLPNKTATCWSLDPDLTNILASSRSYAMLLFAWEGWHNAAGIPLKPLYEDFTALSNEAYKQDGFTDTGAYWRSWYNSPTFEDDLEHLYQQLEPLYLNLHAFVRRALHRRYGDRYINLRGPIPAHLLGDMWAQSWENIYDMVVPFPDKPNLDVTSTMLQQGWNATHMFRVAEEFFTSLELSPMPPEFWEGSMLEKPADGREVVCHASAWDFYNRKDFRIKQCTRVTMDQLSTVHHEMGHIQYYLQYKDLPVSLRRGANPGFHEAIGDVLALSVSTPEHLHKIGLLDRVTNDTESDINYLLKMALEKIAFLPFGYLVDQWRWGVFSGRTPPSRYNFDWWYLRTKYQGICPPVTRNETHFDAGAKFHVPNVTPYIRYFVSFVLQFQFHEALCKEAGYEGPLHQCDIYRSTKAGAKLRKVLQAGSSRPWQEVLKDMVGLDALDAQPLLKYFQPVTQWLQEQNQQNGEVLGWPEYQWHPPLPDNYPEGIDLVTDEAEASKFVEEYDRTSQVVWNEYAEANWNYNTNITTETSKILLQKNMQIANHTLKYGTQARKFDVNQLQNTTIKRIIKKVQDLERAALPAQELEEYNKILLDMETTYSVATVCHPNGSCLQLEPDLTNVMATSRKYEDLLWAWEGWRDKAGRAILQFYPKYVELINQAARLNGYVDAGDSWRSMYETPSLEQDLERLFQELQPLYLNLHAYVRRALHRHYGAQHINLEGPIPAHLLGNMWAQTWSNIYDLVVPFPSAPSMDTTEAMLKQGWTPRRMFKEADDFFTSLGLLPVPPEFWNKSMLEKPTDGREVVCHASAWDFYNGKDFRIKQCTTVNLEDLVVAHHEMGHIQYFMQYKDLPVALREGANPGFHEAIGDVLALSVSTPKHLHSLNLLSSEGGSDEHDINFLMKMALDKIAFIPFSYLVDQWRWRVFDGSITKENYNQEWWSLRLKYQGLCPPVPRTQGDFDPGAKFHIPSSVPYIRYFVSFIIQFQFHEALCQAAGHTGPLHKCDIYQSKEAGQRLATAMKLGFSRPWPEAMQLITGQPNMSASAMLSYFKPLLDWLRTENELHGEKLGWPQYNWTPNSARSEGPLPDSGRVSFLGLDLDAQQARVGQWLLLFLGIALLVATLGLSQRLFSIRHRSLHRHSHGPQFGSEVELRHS

[2] = molecular target: T2, Angiotensin I-converting enzyme (ACE, CD143) (Homo sapiens, UniProt P12821, S362W); assay: as above; assay type: cell-based
T2 construct: full-length somatic ACE, CHO cell lysate
T2 sequence (P12821 30-1306 S362W): as the sequence (P12821 30-1306) above, with S333W counted along it

**Q.** CC(C)C[C@H](NC(=O)[C@H](Cc1cnc[nH]1)NC(=O)CNC(=O)c1ccccc1)C(=O)O [Hip-His-Leu] (Bz-Gly-His-Leu-OH) was tested. Which “fluorimetric hydrolysis assay (His-Leu product), 5 mM substrate” value [1] did it give?
**A.** stably expressing WT and mutant ACE was determined with substrates Hip-His-Leu and Z-Phe-His –Leu

**Q.** And the “fluorimetric hydrolysis assay (His-Leu product), 5 mM substrate” value [2]?
**A.** stably expressing WT and mutant ACE was determined with substrates Hip-His-Leu and Z-Phe-His –Leu
